Patent US12116387B2, “Antimicrobial peptides” (priority 2021, dated 2024)
Read-outs that look alike come from different tables or passages of the source. Ends that are not written are not given here.

Columns and labels:
[1] = system: murine macrophages monocytes (RAW 264.7); assay: Cytotoxicity against RAW 264.7 cells (MTT); assay type: cell-based
[2] = system: human red blood cells (hRBCs); assay: Cytotoxicity / hemolysis against human red blood cells; assay type: cell-based
Method: Once the mechanisms by which the peptide targeted bacterial cells was elucidawted, the effect of the pentapeptide motif insertion on cytotoxicity against mammalian cells was evaluated.

[3] = system: murine fibroblasts (L929); assay: Cytotoxicity against L929 fibroblasts (MTT); assay type: cell-based
Method: Mammalian cells toxicity assays. L929 mice fibroblasts (Rio de Janeiro Cell Bank) and SPCs were seeded in 96-well microtiter plates in a concentration of 1.0×10^5 cells per well, in DMEM medium, supplemented with different concentrations of tested peptides (1-600 μM). After 48 h incubation, a thiazolyl blue tetrazolium bromide (MTT) protocol was performed. Briefly, 60% of the medium was removed, and 10 μL of MTT (5 mg mL^−1) (Sigma, USA) solution was added to each well and the plate was incubated for 4 h, in 5% CO2, at 37° C. The blue formazan product generated was dissolved by the addition of 100 μL of 100% DMSO (Mallinckrodt, Germany) per well. Plates were then gently swirled for 5 min, at room temperature, to dissolve the precipitate. The absorbance was monitored at 575 nm using a microplate spectrophotometer (Bio-Tek, USA). Cytotoxicity was determined as a percentage of the maximum value after subtracting the background. The results were expressed as the percentage of each sample compared to the negative control (PBS buffer, pH 7.4) and cell culture was incubated in a lysis buffer (10 mM Tris, pH 7.4, 1 mM ethylenediamine tetraacetic acid (EDTA), and 0.1% Triton X-100).

mice = system: mice
Method: Therefore, the anti-infective activity of mast-MO was then tested in pre-clinical mouse models. First, the toxicity of a single dose of either mast-L or mast-MO administered peritoneally to mice was assessed in order to determine the range of concentrations to be used in subsequent animal experiments. The hemolytic activity of mast-MO (up to 200 μmoL^−1) against murine red blood cells (Table 6) was also tested prior to conducting animal experiments.
Systemic bacterial infection mouse model. Acute toxicity assay was performed based on the work of Navon-Venezia and co-workers (46). The experiment was performed by intraperitoneal (i.p.) injection of the tested peptides to groups of 10 C57BL/6 mice. Each mouse was injected with a 0.5 mL solution of freshly prepared of peptides in PBS. The doses of peptide administered per mouse were 0, 10, 30, 50, 70 and 90 mg Kg^−1 of body weight. Animals were directly inspected for adverse effects for 6 h, and mortality was monitored for 7 days thereafter. Differences between groups were analysed using the Fisher exact test (differences were considered to be statistically significant when the P value was <0.05). Briefly, E. coli ATCC8739 and E. coli 1812446 or S. aureus ATCC 29213 and S. aureus (MRSA) ATCC33591 were plated on tryptic soy agar plus 5% sheep blood (blood agar, Himedia, India) from a frozen stock. Following 24 h of incubation of the agar plate, three isolated colonies were transferred to 1 mL of BHI. The broth culture was incubated overnight (12-16 h) at 37° C. with shaking. […] Mice were challenged with either strain of E. coli ATCC8739 and E. coli 1812446 or S. aureus ATC29213 and S. aureus (MRSA) ATCC33591 in a final volume of 200 μL of PBS by intraperitoneal injection (i.p.). The day of challenge was designated as day 1 of the experiment. Three hours after bacterial injection, mice (n=5) were treated, intraperitoneally, with different concentrations of peptides (1, 5 or 10 mg Kg^−1), LL-37, gentamicin and 10 mg Kg^−1 of imipenem or PBS for 8 days. For bacterial load evaluation, 5 mice per group were used. Animals were humanely killed 24 h after bacterial administration. To detect bacterial colonization, the peritoneal lavage samples were collected under sterile conditions. The peritoneal lavage was obtained by washing the cavity with 5 mL of sterile PBS. Samples were diluted serially, and 100 μL of each dilution was spread in duplicate on appropriate agar plates for the count of developed colonies. Cytokine levels (i.e., IFN-γ, IL-6, IL−10, IL−12p70 and TNF-α) in the peritoneal lavage of the mice both in the absence and presence of peptide treatment were quantified by ELISA (Peprotech, USA) according to the manufacturer's instructions.

P. aeruginosa = assay: Skin scarification (abscess) infection mouse model; assay type: in vivo; conditions: single dose 16 μmol L^−1
From the text: Despite these therapeutic properties, mast-MO retained some cytotoxicity towards human cells at concentrations immediately above its antimicrobial and immunomodulatory activities hindering its use as a potential therapy in humans. FIG. 6B pertains to design of mast-MO derivatives through permutation of its FLPII motif. FIG. 6C depicts cytotoxic activity of mast-MO and its permutation variants against human embryonic kidney cells (i.e., HEK293). FIG. 6D provides a schematic of the experimental design. Briefly, the back of mice was shaved, and an abrasion was generated to damage the stratum corneum and the upper layer of the epidermis. Subsequently, an aliquot of […] containing 5×10^7 CFU/20 μL of P. aeruginosa in PBS was inoculated over each defined area. One day post-infection, peptides (16 μmol L^−1) were administered to the infected area. […] Six animals per group were euthanized and the area of scarified skin was excised two days post-infection, homogenized using a bead beater for 20 min (25 Hz), and serially diluted for CFU quantification (statistical significance was determined using two-way ANOVA followed by Dunnett's test, ***p<0.001). […]
Skin abscess infection mouse model. […] Animals were euthanized and the area of scarified skin was excised two- and four-days post-infection, homogenized using a bead beater for 20 minutes (25 Hz), and serially diluted for CFU quantification. […]

[4] = system: mouse red blood cells (mRBCs); assay: Hemolysis of mouse red blood cells; assay type: cell-based; conditions: 0.5 to 200 μmol L^−1
Method: Hemolysis assays. Hemolytic activity of peptides was determined by using fresh mouse red blood cells (mRBCs), by measuring the peptide-induced changes of the optical density (OD) at 540 nm (Victor X, Perkin-Elmer, Germany), 100% lysis was determined by analysing the supernatant of erythrocytes that had been incubated with Triton X-100 (1%).

[5] = system: human embryonic kidney (HEK293) cells; assay: Cytotoxicity against HEK293 cells; assay type: cell-based
From the text: The FLPII motif was chosen for the permutations to preserve the natural antimicrobial activity of mast-L and also conserve the hydrophobic content inserted in the N-terminal extremity for the initial design of mast-MO. Next, we assessed the antimicrobial (FIG. 10) and cytotoxic activities of the mast-MO analog library against HEK293 cells (FIG. 6C). These specific cell line was chosen as it derives from human embryonic kidney cells and potential antimicrobial (i.e., AMPs, antibiotics) toxicity affects the kidneys, which are responsible for clearing such molecules (34). Also measured was whether the peptides aggregated at the highest concentration tested (128 μmoL^−1) (Table 7) since the motif inserted is composed of residues with aliphatic or aromatic side chain groups that may be prone to aggregation when in proximity within the primary peptide sequence, thus altering biological activity. Minor changes to the first five residues inserted in the mast-MO primary sequence led to a pronounced decrease in cytotoxic activity (2.5 to 5-fold) compared to mast-MO (FIG. 6C).

[6] = system: E. coli and S. aureus strains; assay: Systemic infection experiments, summary over all strains; conditions: 10 mg Kg^−1
Method: To determine the anti-infective activity of mast-MO in a pre-clinical mouse model, the ability of the peptide to kill pathogenic and drug-resistant E. coli and S. aureus strains was tested in a systemic sepsis infection mouse model (FIG. 5). The minimal bacterial load resulting in a lethal dose (LD100) 24 h post-intraperitoneal injection was first determined. […] Mice were infected with the LD100 of bacteria and treated 3 h post-infection with either mast-L (1 and 5 mg Kg^−1) or mast-MO (1, 5 and 10 mg Kg^−1), which were also administered intraperitoneally.
Systemic bacterial infection mouse model. […] The experiment was performed by intraperitoneal (i.p.) injection of the tested peptides to groups of 10 C57BL/6 mice. Each mouse was injected with a 0.5 mL solution of freshly prepared of peptides in PBS. The doses of peptide administered per mouse were 0, 10, 30, 50, 70 and 90 mg Kg^−1 of body weight. Animals were directly inspected for adverse effects for 6 h, and mortality was monitored for 7 days thereafter. Differences between groups were analysed using the Fisher exact test (differences were considered to be statistically significant when the P value was <0.05). Briefly, E. coli ATCC8739 and E. coli 1812446 or S. aureus ATCC 29213 and S. aureus (MRSA) ATCC33591 were plated on tryptic soy agar plus 5% sheep blood (blood agar, Himedia, India) from a frozen stock. Following 24 h of incubation of the agar plate, three isolated colonies were transferred to 1 mL of BHI. The broth culture was incubated overnight (12-16 h) at 37° C. with shaking. […] Mice were challenged with either strain of E. coli ATCC8739 and E. coli 1812446 or S. aureus ATC29213 and S. aureus (MRSA) ATCC33591 in a final volume of 200 μL of PBS by intraperitoneal injection (i.p.). The day of challenge was designated as day 1 of the experiment. Three hours after bacterial injection, mice (n=5) were treated, intraperitoneally, with different concentrations of peptides (1, 5 or 10 mg Kg^−1), LL-37, gentamicin and 10 mg Kg^−1 of imipenem or PBS for 8 days. For bacterial load evaluation, 5 mice per group were used. […]

[7] = Dose 90 mg Kg^−1, five mice per group

**Q.** Which “Cytotoxic activity, Peptide Concentration” value (shortened to “Cytotoxic activity”) ([1]; RAW 264.7 (Table 2)) does the source give for gentamicin here?
**A.** >400 µmol/L

**Q.** And the “Cytotoxic activity” value ([2]; hRBCs)?
**A.** >400 µmol/L

**Q.** And the “Cytotoxic activity” value ([3]; L929)?
**A.** >400 µmol/L

**Q.** Which “Cytotoxic activity” value ([1]; mouse) does the source give for `C[C@@H](O)[C@H]1C(=O)N2C(C(=O)O)=C(SCCN=CN)C[C@H]12` [Imipenem, imipenem] here?
**A.** >400 µmol/L

**Q.** And the “Gross toxicity, number of mice (TL)” value (mice; Dose 50 mg Kg^−1, five mice per group)?
**A.** 2 (TL-1)

**Q.** What about the “Gross toxicity, number of mice (TL)” value (mice; [7]) of the same molecule?
**A.** 3 (TL-2)

**Q.** And the “Cytotoxic activity” value ([2]; human)?
**A.** >400 µmol/L

**Q.** What about the “Cytotoxic activity” value ([3]; mouse) of the same molecule?
**A.** >400 µmol/L

**Q.** `CC[C@H](C)[C@H](N)C(=O)N[C@@H](Cc1ccccc1)C(=O)N[C@@H](CC(C)C)C(=O)N1CCC[C@H]1C(=O)N[C@H](C(=O)N[C@H](C(=O)N[C@@H](CC(N)=O)C(=O)N[C@@H](CC(C)C)C(=O)N[C@@H](CCCCN)C(=O)N[C@@H](C)C(=O)N[C@@H](CC(C)C)C(=O)N[C@@H](C)C(=O)N[C@@H](C)C(=O)N[C@@H](CC(C)C)C(=O)N[C@@H](C)C(=O)N[C@@H](CCCCN)C(=O)N[C@@H](CCCCN)C(=O)N[C@H](C(=O)N[C@@H](CC(C)C)C(N)=O)[C@@H](C)CC)[C@@H](C)CC)[C@@H](C)CC` [Analog 15, IFLPIINLKALAALAKKIL] was tested. Which “Side effects or adverse toxicity” value (P. aeruginosa) did it give?
**A.** did not cause any side effects or adverse toxicity

**Q.** FLPII [FLPII motif, FLPII] was tested. Which “Cytotoxic activity” value ([1]; RAW 264.7, 24 h, 0.5 to 200 μmol L^−1, MTT (Table 6)) did it give?
**A.** >200 µmol/L

**Q.** And the “Hemolytic activity, Peptide Concentration” value [4]?
**A.** >200 µmol/L

**Q.** With `CC[C@H](C)[C@H](NC(=O)[C@H](CCCCN)NC(=O)[C@H](CCCCN)NC(=O)[C@H](C)NC(=O)[C@H](CC(C)C)NC(=O)[C@H](C)NC(=O)[C@H](C)NC(=O)[C@H](CC(C)C)NC(=O)[C@H](C)NC(=O)[C@H](CCCCN)NC(=O)[C@H](CC(C)C)NC(=O)[C@H](CC(N)=O)NC(=O)[C@@H](NC(=O)[C@H](CC(C)C)NC(=O)[C@@H](NC(=O)[C@@H](NC(=O)[C@@H]1CCCN1C(=O)[C@@H](N)Cc1ccccc1)[C@@H](C)CC)[C@@H](C)CC)[C@@H](C)CC)C(=O)N[C@@H](CC(C)C)C(N)=O` [Analog 49, FPIILINLKALAALAKKIL] as the molecule, how does the “Side effects or adverse toxicity” value (P. aeruginosa) read?
**A.** did not cause any side effects or adverse toxicity

**Q.** What does the source list for `CC[C@H](C)[C@H](NC(=O)[C@H](CCCCN)NC(=O)[C@H](CCCCN)NC(=O)[C@H](C)NC(=O)[C@H](CC(C)C)NC(=O)[C@H](C)NC(=O)[C@H](C)NC(=O)[C@H](CC(C)C)NC(=O)[C@H](C)NC(=O)[C@H](CCCCN)NC(=O)[C@H](CC(C)C)NC(=O)[C@H](CC(N)=O)NC(=O)[C@@H](NC(=O)[C@@H](NC(=O)[C@@H](NC(=O)[C@@H]1CCCN1C(=O)[C@H](CC(C)C)NC(=O)[C@@H](N)Cc1ccccc1)[C@@H](C)CC)[C@@H](C)CC)[C@@H](C)CC)C(=O)N[C@@H](CC(C)C)C(N)=O` [Mast-MO, FLPIIINLKALAALAKKIL]?
**A.** Cytotoxicity towards murine macrophages (RAW 264.7 cells), in words [1]: not cytotoxic; Cytotoxic activity, Peptide Concentration ([1]; RAW 264.7 (Table 2)): >400 µmol/L; Concentration toxic against HEK293 [5]: 25 µmol⁻¹; Cytotoxic activity, Peptide Concentration ([5]; HEK293): 25 µmol/L; Gross toxicity, number of mice (TL) (mice; [7]): 2 (TL-1); Toxicity in preliminary mouse experiments, in words (mice; single dose, peritoneally): lacked toxicity; Hemolytic activity in human red blood cell assays ([2]; concentration range tested 1-400 μmoL^−1): did not present hemolytic activity; Cytotoxic activity, Peptide Concentration ([2]; hRBCs): >400 µmol/L; Toxicity when injected systemically in the infection model [6]: did not present toxicity; Cytotoxicity towards murine fibroblasts (L929 cells), in words [3]: not cytotoxic; Cytotoxic activity, Peptide Concentration ([3]; L929): >400 µmol/L
